# The source made the active and inactive calls. No cut-off for these calls is given here.
# Columns and labels:
# LNCaP [1] = experiment: Growth inhibition of human LNCaP cells at 1.5 uM incubated for 72 hrs; format: functional, cell-based
# U-937 [2] = experiment: Induction of cell attachment in human U-937 cells at 1000 nM incubated for 72 hrs relative to control; format: functional
# U-937 [3] = experiment: Growth inhibition of human U-937 cells assessed as reduction in total cell number at 1000 nM incubated for 72 hrs; format: functional, cell-based
# U-937 [4] = experiment: Growth inhibition of human U-937 cells assessed as reduction in total cell number at 1 to 10 nM incubated for 72 hrs; format: functional, cell-based; conditions: dose 1-10 nM
# U-937 [5] = experiment: Induction of cell attachment in human U-937 cells at 1 to 100 nM incubated for 72 hrs relative to control; format: functional; conditions: dose 1-100 nM
# [6] = target: Protein kinase C delta type (Homo sapiens, UniProt Q05655); experiment: Binding affinity to PKCdelta (unknown origin) assessed as inhibition constant
# LNCaP [7] = experiment: Growth inhibition of human LNCaP cells at 5 to 1500 nM incubated for 72 hrs; format: functional, cell-based; conditions: dose 5-1500 nM
# U-937 [8] = experiment: Induction of cell attachment in human U-937 cells at 100 nM incubated for 72 hrs; format: functional, cell-based
# U-937 [9] = experiment: Induction of cell attachment in human U-937 cells at 1 to 100 nM incubated for 72 hrs; format: functional, cell-based; conditions: dose 1-100 nM
# U-937 [10] = experiment: Induction of cell attachment in human U-937 cells at 1 nM incubated for 72 hrs relative to control; format: functional
# LNCaP [11] = experiment: Growth inhibition of human LNCaP cells at < 10 nM incubated for 72 hrs; format: functional, cell-based
# U-937 [12] = experiment: Growth inhibition of human U-937 cells assessed as reduction in total cell number at 1 nM incubated for 72 hrs; format: functional; conditions: read-out: GI
# U-937 [13] = experiment: Induction of cell attachment in human U-937 cells at 100 nM incubated for 72 hrs relative to control; format: functional
# U-937 [14] = experiment: Growth inhibition of human U-937 cells assessed as reduction in total cell number at 100 nM incubated for 72 hrs; format: functional; conditions: read-out: GI
# U-937 [15] = experiment: Induction of cell attachment in human U-937 cells at more than 10 nM incubated for 72 hrs relative to control; format: functional
# Chain of Protein kinase C delta type (Q05655 whole entry): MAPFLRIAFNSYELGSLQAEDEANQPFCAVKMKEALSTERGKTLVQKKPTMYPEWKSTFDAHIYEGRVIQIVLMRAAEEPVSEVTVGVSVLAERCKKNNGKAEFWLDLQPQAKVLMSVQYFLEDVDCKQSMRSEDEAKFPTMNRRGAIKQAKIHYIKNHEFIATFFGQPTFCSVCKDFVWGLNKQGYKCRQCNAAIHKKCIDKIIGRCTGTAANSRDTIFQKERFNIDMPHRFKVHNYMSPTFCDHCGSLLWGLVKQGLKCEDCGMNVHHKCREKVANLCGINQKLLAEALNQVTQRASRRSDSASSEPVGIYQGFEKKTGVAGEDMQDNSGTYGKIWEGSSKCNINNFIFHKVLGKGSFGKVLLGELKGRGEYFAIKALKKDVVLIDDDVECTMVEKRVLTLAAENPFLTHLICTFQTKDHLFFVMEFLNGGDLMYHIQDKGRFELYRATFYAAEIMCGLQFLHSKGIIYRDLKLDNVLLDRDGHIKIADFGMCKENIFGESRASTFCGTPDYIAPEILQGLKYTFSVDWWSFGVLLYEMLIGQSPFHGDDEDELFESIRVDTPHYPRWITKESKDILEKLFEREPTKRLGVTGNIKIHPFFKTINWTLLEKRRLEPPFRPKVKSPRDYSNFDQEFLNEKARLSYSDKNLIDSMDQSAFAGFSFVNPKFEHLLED
smiles,measurement,setting,value
CCC/C=C/C=C/C(=O)O[C@H]1/C(=C/C(=O)OC)C[C@H]2C[C@H]([C@@H](C)O)OC(=O)C[C@H](O)C[C@@H]3C[C@H](OC(C)=O)C(C)(C)[C@](O)(C[C@@H]4C/C(=C/C(=O)OC)C[C@H](/C=C/C(C)(C)[C@]1(O)O2)O4)O3 [BRYOSTATIN 1],growth inhibition (GI),LNCaP [1],inactive
same,Activity,U-937 [2],1.8%
same,growth inhibition (GI),U-937 [3],Active
same,growth inhibition (GI),U-937 [4],inactive
CC(=O)n1cc2c3c(cccc31)N(C)[C@@H](C(C)C)C(=O)N[C@H](CO)C2,Activity,U-937 [5],<2%
same,Ki,[6],94 nM
same,growth inhibition (GI),LNCaP [7],Active
same,Activity,U-937 [8],Active
same,Activity,U-937 [9],inactive
CC(C)[C@H]1C(=O)N[C@H](CO)Cc2cn(C(C)C)c3cccc(c23)N1C,Activity,U-937 [5],<2%
same,Activity,U-937 [2],6.5%
same,Ki,[6],32 nM
same,growth inhibition (GI),LNCaP [7],Active
same,Activity,U-937 [8],Active
same,Activity,U-937 [9],inactive
CCCCCCCCCCCCCC(=O)O[C@H]1[C@H](C)[C@]2(O)[C@H](C=C(CO)C[C@@]3(O)C(=O)C(C)=C[C@H]23)[C@H]2C(C)(C)[C@@]12OC(C)=O,Activity,U-937 [10],85.4%
same,growth inhibition (GI),LNCaP [11],Active
same,inhibition of growth at 0.001 µM,U-937 [12],21.5%
CC(C)[C@H]1C(=O)N[C@H](CO)Cc2c[nH]c3cccc(c23)N1C [INDOLACTUM],Activity,U-937 [2],70.3%
same,Activity,U-937 [13],44.2%
same,inhibition of growth at 0.1 µM,U-937 [14],25.7%
C=C[C@@](C)(CCC=C(C)C)c1ccc2c3c(c[nH]c13)C[C@@H](CO)NC(=O)[C@H](C(C)C)N2C,Activity,U-937 [15],>60%
C=CC(C)(C)c1ccc2c3c(c[nH]c13)C[C@@H](CO)NC(=O)[C@H](C(C)C)N2C [PENDOLMYCIN],Activity,U-937 [15],>60%

# From ChEMBL document CHEMBL5584215, “Biological evaluation of indolactams for in vitro bryostatin 1-like activity” (Bioorg Med Chem Lett, 2024)
